How the values were obtained:
[1] = system: HCT-15 (Colon Cancer); test: NCI 60 one dose screen; format: cell-based, human
[2] = system: SK-MEL-5; test: Melanoma cytotoxicity assay (resazurin); format: cell-based; details: for SK-MEL-5 (% viability): human, 24 h
Protocol: (§1) Cytotoxicity Assay: Melanoma cells (˜4000 cells in each well) were incubated in a 96 well plates at 37° C. in 5% CO2 for 24 hours. Compounds were added in triplicates and the plate was further incubated for 24 hours. DMSO and dacarbazine were added as technical and positive controls respectively. Next day resazurin was added and the plate was further incubated for 6 hours followed by reading the plate at 544 nm (excitation) and 590 nm (emission) using BMG Labtech Fluostar Optima plate reader. IC50 values were determined by using Graphpad Prism.
(§2) On day 1, the cell line trypsinized and centrifuged to form cell pellet. The pellet was diluted in media, then counted using Countess automated cell counter. Approximately 4000 cells (198 uL) per well plated in […]. A control well of 200 uL growth media was also prepared. Wells closest to plate perimeter were filled with 200 uL PBS to prevent inner well evaporation. The 96 well plates are incubated in 37° C. incubator at 5% CO2 for 24 hours.
(§3) On day 2, compounds were added (in triplicate) along with DMSO/Dacarbazine controls (2 uL) added to bring wells to volume of 200 μL. The 96 well plates are incubated in 37° C. incubator at 5% CO2 for 24 hours.
(§4) On day 3, 40 μL of 0.15 mg/ml reszurin solution added to wells. Samples were placed in a 37° C. incubator at 5% CO2 for 6 hours. Excitation and emission for fluorescence measured at 544 nm and 590 nm using BMG Labtech Fluostar Optima plate reader
(§5) Percent viability determined by taking average of each triplicate well fluorescence and subtracting GM well reading to remove the background signal. This difference is then divided by the average of the negative control (DMSO) wells to determine percent viability.
(§6) IC50s were determined by using cereal dilution of compound to determine viability. Viabilities and concentration of cells are analyzed in Graphpad Prism by creating sigmoidal curve graph, which will determine the IC50 concentration.
(§7) We analyzed the ability of the thiazole-androstane derivatives to inhibit growth in various melanoma cell lines. The growth inhibition against melanoma cell lines of various compound is shown below in Tables 19 and 20. Inhibition results are reported as the IC50 concentration in μM of the indicated compound or as the percent viability […] of the indicated compound. NA=not available.

[3] = system: SK-MEL-28; test: Melanoma cytotoxicity assay (resazurin); format: cell-based; details: for SK-MEL-28 (% viability): human, 24 h
Protocol: as §1, §2, §3, §4, §5, §6, §7

[4] = system: SK-MEL-25; test: Melanoma cytotoxicity assay (resazurin); format: cell-based; details: for SK-MEL-25 (% viability): human, 24 h
Protocol: as §1, §2, §3, §4, §5, §6, §7

[5] = system: SF-295; test: NCI 60 one dose screen; format: cell-based, human; details: one dose; CNS Cancer; SF-295
[6] = system: NCI-H522 (NSCLC); test: NCI 60 one dose screen; format: cell-based, human; details: Non-small Cell Lung Cancer
[7] = system: 60 different human tumor cell lines; test: NCI Development Therapeutics Program 60 cell line screen, one dose; format: cell-based
[8] = system: SF-539; test: NCI 60 one dose screen; format: cell-based, human; details: one dose; CNS Cancer; SF-539
[9] = system: LOX IMVI; test: Melanoma cytotoxicity assay (resazurin); format: cell-based; details: human, 24 h
Protocol: as §1, §2, §3, §4, §5, §6, §7

[10] = system: MALME-3M; test: Melanoma cytotoxicity assay (resazurin); format: cell-based; details: human, 24 h
Protocol: as §2, §3, §4, §5, §6, §7

CN(c1ccccc1)c1nc2c(s1)CC[C@@]1(C)C2=CC[C@@H]2[C@@H]1CC[C@]1(C)C(=O)CC[C@@H]21 [IIa.6, (1S,2R,13R,14S,18S)-2,18-dimethyl-7-(N-methylanilino)-6-thia-8-azapentacyclo[11.7.0.02,10.05,9.014,18]icosa-5(9),7,10-trien-17-one]
Growth Percent [1]: 35.23% | SK-MEL-5 (% inhibition) ([2]; SK-MEL-5 melanoma cells, 24 hours with compound, resazurin, concentration not given): 63% | SK-MEL-28 (% inhibition) ([3]; SK-MEL-28 melanoma cells, 24 hours with compound, resazurin, concentration not given): 60% | SK-MEL-25 (% inhibition) ([4]; SK-MEL-25 melanoma cells, 24 hours with compound, resazurin, concentration not given): 60% | Growth Percent [5]: 42.68% | Growth Percent [6]: 8.26% | Growth Percent ([7]; Breast Cancer, BT-549): 45.19% | Growth Percent ([7]; Breast Cancer, HS 578T): 54.53% | Growth Percent ([7]; Breast Cancer, MCF7): 32.55% | Growth Percent ([7]; Breast Cancer, MDA-MB-231/ATCC): 68.22% | Growth Percent ([7]; Breast Cancer, MDA-MB-468): 29.56% | Growth Percent ([7]; Breast Cancer, T-47D): 65.84% | Growth Percent ([7]; CNS Cancer, SF-268): 73.87% | Growth Percent ([7]; CNS Cancer, SNB-19): 54.72% | Growth Percent ([7]; CNS Cancer, SNB-75): 73.17% | Growth Percent ([7]; CNS Cancer, U251): 36.99% | Growth Percent ([7]; Colon Cancer, COLO 205): 48.79% | Growth Percent ([7]; Colon Cancer, HCC-2998): 82.14% | Growth Percent ([7]; Colon Cancer, HCT-116): 32.71% | Growth Percent ([7]; Colon Cancer, HT29): 10.25% | Growth Percent ([7]; Colon Cancer, KM12): 33.11% | Growth Percent ([7]; Colon Cancer, SW-620): 44.14% | Growth Percent ([7]; Leukemia, CCRF-CEM): 44.17% | Growth Percent ([7]; Leukemia, HL-60(TB)): 44.55% | Growth Percent ([7]; Leukemia, MOLT-4): 45.63% | Growth Percent ([7]; Leukemia, RPMI-8226): 48.36% | Growth Percent ([7]; Leukemia, SR): 31.74% | Growth Percent ([7]; Melanoma, LOX IMVI): 66.30% | Growth Percent ([7]; Melanoma, M14): 41.12% | Growth Percent ([7]; Melanoma, MALME-3M): 55.43% | Growth Percent ([7]; Melanoma, MDA-MB-435): 2.34% | Growth Percent ([7]; Melanoma, SK-MEL-2): 49.76% | Growth Percent ([7]; Melanoma, SK-MEL-5): 32.53% | Growth Percent ([7]; Melanoma, SK-MEL-28): 72.19% | Growth Percent ([7]; Melanoma, UACC-62): 38.23% | Growth Percent ([7]; Melanoma, UACC-257): 67.13% | Growth Percent ([7]; Non-small Cell Lung Cancer, A549/ATCC): 47.72% | Growth Percent ([7]; Non-small Cell Lung Cancer, EKVX): 78.34% | Growth Percent ([7]; Non-small Cell Lung Cancer, HOP-62): 70.07% | Growth Percent ([7]; Non-small Cell Lung Cancer, HOP-92): 78.79% | Growth Percent ([7]; Non-small Cell Lung Cancer, NCI-H23): 79.64% | Growth Percent ([7]; Non-small Cell Lung Cancer, NCI-H226): 83.39% | Growth Percent ([7]; Non-small Cell Lung Cancer, NCI-H322M): 89.66% | Growth Percent ([7]; Non-small Cell Lung Cancer, NCI-H460): 38.69% | Growth Percent ([7]; Ovarian Cancer, IGROV1): 67.27% | Growth Percent ([7]; Ovarian Cancer, NCI/ADR-RES): 43.96% | Growth Percent ([7]; Ovarian Cancer, OVCAR-3): 36.20% | Growth Percent ([7]; Ovarian Cancer, OVCAR-4): 83.97% | Growth Percent ([7]; Ovarian Cancer, OVCAR-5): 98.72% | Growth Percent ([7]; Ovarian Cancer, OVCAR-8): 76.81% | Growth Percent ([7]; Ovarian Cancer, SK-OV-3): 79.14% | Growth Percent ([7]; Prostate Cancer, DU-145): 79.22% | Growth Percent ([7]; Prostate Cancer, PC-3): 71.01% | Growth Percent ([7]; Renal Cancer, 786-0): 58.79% | Growth Percent ([7]; Renal Cancer, A498): 50.67% | Growth Percent ([7]; Renal Cancer, ACHN): 93.66% | Growth Percent ([7]; Renal Cancer, CAKI-1): 61.11% | Growth Percent ([7]; Renal Cancer, RXF 393): 79.66% | Growth Percent ([7]; Renal Cancer, SN12C): 77.26% | Growth Percent ([7]; Renal Cancer, TK-10): 91.08% | Growth Percent ([7]; Renal Cancer, UO-31): 79.34% | Growth Percent [8]: 51.35%

C[C@]12CC[C@H]3[C@@H](CC=C4c5sc(Nc6ccccc6[N+](=O)[O-])nc5CC[C@@]43C)[C@@H]1CC[C@@H]2O [IIIa.16, (1S,2R,13R,14S,17S,18S)-2,18-dimethyl-7-(2-nitroanilino)-8-thia-6-azapentacyclo[11.7.0.02,10.05,9.014,18]icosa-5(9),6,10-trien-17-ol]
LOX-IMVI (% viability) [9]: 67% | SK-MEL-5 (% viability) [2]: 10.22% | SK-MEL-28 (% viability) [3]: 8.47% | SK-MEL-25 (% viability) [4]: 26.7% | MALME-3M (% viability) [10]: 102.39%

C[C@]12CC[C@H]3[C@@H](CC=C4c5sc(Nc6cccc(C(=O)O)c6)nc5CC[C@@]43C)[C@@H]1CC[C@@H]2O [IIIa.35, 3-[[(1S,2R,13R,14S,17S,18S)-17-hydroxy-2,18-dimethyl-8-thia-6-azapentacyclo[11.7.0.02,10.05,9.014,18]icosa-5(9),6,10-trien-7-yl]amino]benzoic acid]
LOX-IMVI (% viability) [9]: 89% | SK-MEL-5 (% viability) [2]: 106.21% | SK-MEL-28 (% viability) [3]: 66.69% | SK-MEL-25 (% viability) [4]: 54.19% | MALME-3M (% viability) [10]: 122.92%

From patent US20250296953A1, “3,4-THIAZOLO-STEROIDS AND METHODS OF MAKING AND USING THE SAME” (Arkansas State University - Jonesboro, priority 2018, published 2025)
